# In US11679107B2 (Eisai R&D Management Co., Ltd., priority 2018, dated 2023):
# Read-outs that look alike come from different tables or passages of the source.
# Tests used:
# SF3b complexes = molecular target: T1, SF3b complexes (Homo sapiens, UniProt O75533+Q7RTV0); assay: Scintillation proximity assay (SPA) with [3H]-labelled pladienolide probe; type: binding; details: SF3B1 (WT); geometric mean; read-out: SPA-ATS GMean IC50 (nM) SF3B1 (WT)
# T1 construct: endogenous in cells; host or cells: Nuclear extracts; A HeLa S3 extract preparation is described for the in vitro splicing assay
# Outline: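 SF3b complexes captured from nuclear extracts on anti-SF3B1 antibody SPA beads; test compounds pre-incubated 30 min before 2.5 nM [3H]-pladienolide probe added, then 30 min incubation. Bound probe read by scintillation; values from non-linear regression of concentration–response curves.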
# [1] = test system: Ad2 variant pre-mRNAs spliced in HeLa S3 nuclear extracts; assay: In vitro splicing assay (IVS), RT-qPCR of spliced product; type: biochemical; details: for IC50: geometric mean; for Ratio Ad2.1/2.2: ratio of IVS IC50 Ad2.1 to Ad2.2
# Outline: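 Ad2 variant pre-mRNA (2 ng) with FTZΔi control RNA in HeLa S3 nuclear extract (8 μg) was pre-incubated with compound or DMSO for 15 min at 30 °C. Splicing ran 90 min at 30 °C after adding 0.5 mM ATP, creatine phosphate and MgCl2. Spliced product was quantified by TaqMan RT-qPCR, normalized to DMSO, and curve-fitted.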
# [2] = test system: Panc 05.04 cells (SF3b K700E mutant); assay: Cell proliferation and viability, CellTiter-Glo, 72 hours; type: cell-based; details: for GI50: geometric mean
# Outline: (§1)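 Cells grown in RPMI-1640 with 10% FBS (Panc line with added insulin and FBS to 15%) were exposed to an 11-point half-log dilution series, typically 10 μM-100 pM, at 0.1% final DMSO. After incubation at 37° C, 5% CO2, ATP content was measured by luminescence and normalized to a time-zero plate and DMSO wells.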
# [3] = test system: NCI-H1568 cells (high MCL1); assay: as above; type: cell-based; details: for GI50: geometric mean
# Outline: as §1
# [4] = Ad2.1 pre-mRNA substrate, read-out: qPCR-IVS-ATS GMean IC50 (nM) Ad2.1
# [5] = Ad2.2 pre-mRNA substrate, read-out: qPCR-IVS-ATS GMean IC50 (nM) Ad2.2
# [6] = PANC0504.1 cells, 72 h, −100% cidal, 0% static, 100% maximal growth
# [7] = Panc 05.04, 72 h, read-out: CTGlo-ATS GMean GI50 (nM) 72 h PANC0504.1, PANC0504.1 cells, 72 h
# [8] = NCI-H1568, 72 h, read-out: CTGlo-ATS GMean GI50 (nM) 72 h NCIH1568.1, NCIH1568.1 cells, 72 h
# [9] = NCIH1568.1 cells, 72 h, −100% cidal, 0% static, 100% maximal growth
# [10] = Panc 05.04, read-out: CTGlo-ATS GMean GI50 (nM) 72 h PANC0504.1, PANC0504.1 cells, 72 h
# [11] = NCI-H1568, read-out: CTGlo-ATS GMean GI50 (nM) 72 h NCIH1568.1, NCIH1568.1 cells, 72 h
# [12] = 72 h, PANC0504.1, -100% = cidal, 0% = static, 100% = uninhibited growth
# [13] = Panc 05.04, 72 h, read-out: CTGlo-ATS GMean GI50 (nM) 72 h PANC0504.1, 72 h, PANC0504.1
# [14] = 72 h, NCIH1568.1, -100% = cidal, 0% = static, 100% = uninhibited growth
# [15] = NCI-H1568, 72 h, read-out: CTGlo-ATS GMean GI50 (nM) 72 h NCIH1568.1, 72 h, NCIH1568.1
# [16] = Panc 05.04, read-out: CTGlo-ATS GMean GI50 (nM) 72 h PANC0504.1, 72 h, PANC0504.1
# [17] = NCI-H1568, read-out: CTGlo-ATS GMean GI50 (nM) 72 h NCIH1568.1, 72 h, NCIH1568.1
SMILES,IC50 (SF3b complexes),"IC50 [1, 4]","IC50 [1, 5]","CTGlo-ATS Mean MinResponse % 72 h PANC0504.1 [2, 6]","GI50 [2, 7]","GI50 [3, 8]","CTGlo-ATS Mean MinResponse % 72 h NCIH1568.1 [3, 9]","GI50 [2, 10]","GI50 [3, 11]",Ratio Ad2.1/2.2 [1],"CTGlo-ATS Mean MinResponse % 72 h PANC0504.1 [2, 12]","GI50 [2, 13]","CTGlo-ATS Mean MinResponse % 72 h NCIH1568.1 [3, 14]","GI50 [3, 15]","GI50 [2, 16]","GI50 [3, 17]"
C/C(=C\c1cc(F)cc(N2CCC[C@H]2CO)c1)[C@H]1OC(=O)C[C@H](O)CC[C@H](C)[C@@H](OC(=O)N2CCN(C)CC2)/C=C/[C@@H]1C [Compound 15],6.33 nM,21.6 nM,12.3 nM,−80.816%,6.23 nM,7.58 nM,−74.931%,,,,,,,,,
C/C(=C\c1cc(F)cc(N2CCN(CCO)CC2)c1)[C@H]1OC(=O)C[C@H](O)CC[C@H](C)[C@@H](OC(=O)N(C)C2CCN(C)CC2)/C=C/[C@@H]1C [Compound 54],4.29 nM,12.4 nM,15.8 nM,−94.487%,,,−96.584%,8.66 nM,7.81 nM,,,,,,,
C/C(=C\c1cc(F)cc(N2CCC(=O)C2)c1)[C@H]1OC(=O)C[C@H](O)CC[C@H](C)[C@@H](OC(=O)N2CCN(C)CC2)/C=C/[C@@H]1C [Compound 35],4.78 nM,913 nM,27.1 nM,−87.702%,,,−46.227%,53.2 nM,107 nM,,,,,,,
C/C(=C\c1cc(F)cc(N2CCN(C(=O)C3CCOCC3)CC2)c1)[C@H]1OC(=O)C[C@H](O)CC[C@H](C)[C@@H](OC(=O)N2CCN(C)CC2)/C=C/[C@@H]1C [Compound 118],3.76 nM,22 nM,19.9 nM,−79.169%,4.55 nM,3 nM,−82.113%,,,,,,,,,
"C/C(=C\c1cc(F)cc(N2CCN(C(=O)Cn3cccn3)CC2)c1)[C@H]1OC(=O)C[C@H](O)CC[C@H](C)[C@@H](OC(=O)N2CCNCC2)/C=C/[C@@H]1C [Compound 235, [(2S,3S,4E,6R,7S,10R)-2-[(E)-1-[3-fluoro-5-[4-(2-pyrazol-1-ylacetyl)piperazin-1-yl]phenyl]prop-1-en-2-yl]-10-hydroxy-3,7-dimethyl-12-oxo-1-oxacyclododec-4-en-6-yl] piperazine-1-carboxylate]",5.56 nM,16 nM,15.1 nM,,,,,,,1.057,−84.459%,1.94 nM,−84.925%,2.35 nM,,
C/C(=C\c1cccc(N(C)C)c1)[C@H]1OC(=O)C[C@H](O)CC[C@H](C)[C@@H](OC(=O)N2CCN(C)CC2)/C=C/[C@@H]1C [Compound 265],5.3 nM,> 25000 nM,71.6 nM,,,,,,,349.0,25.1%,36.7 nM,−9.0%,47.5 nM,,
C/C(=C\c1cc(F)cc(N2CCN(CCO)C(=O)C2)c1)[C@H]1OC(=O)C[C@H](O)CC[C@H](C)[C@@H](OC(=O)N2CCN(C)CC2)/C=C/[C@@H]1C [Compound 104],2.1 nM,31.9 nM,13.9 nM,−86.795%,,,−69.040%,4.58 nM,5.1 nM,,,,,,,
"C/C(=C\c1cccc(COC(=O)N(C)C)c1)[C@H]1OC(=O)C[C@H](O)CC[C@H](C)[C@@H](OC(=O)N2CCN(C)CC2)/C=C/[C@@H]1C [Compound 258, [(2S,3S,4E,6R,7S,10R)-2-[(E)-1-[3-(dimethylcarbamoyloxymethyl)phenyl]prop-1-en-2-yl]-10-hydroxy-3,7-dimethyl-12-oxo-1-oxacyclododec-4-en-6-yl] 4-methylpiperazine-1-carboxylate]",11.7 nM,> 25000 nM,73.8 nM,,,,,,,338.606,−65.918%,28.7 nM,−12.669%,29.8 nM,,
C/C(=C\c1cc(F)cc(-n2ccnc2)c1)[C@H]1OC(=O)C[C@H](O)CC[C@H](C)[C@@H](OC(=O)N2CCN(C)CC2)/C=C/[C@@H]1C [Compound 60],2.99 nM,> 25000 nM,55.5 nM,−87.159%,,,−42.456%,26.7 nM,29.9 nM,,,,,,,
"C/C(=C\c1cc(F)cc(N2CCOCC2)c1)[C@H]1OC(=O)C[C@H](O)CC[C@H](C)[C@@H](OC(=O)N2CCC(N3CCCCC3)CC2)/C=C/[C@@H]1C [Compound 262, [(2S,3S,4E,6R,7S,10R)-2-[(E)-1-(3-fluoro-5-morpholin-4-ylphenyl)prop-1-en-2-yl]-10-hydroxy-3,7-dimethyl-12-oxo-1-oxacyclododec-4-en-6-yl] 4-piperidin-1-ylpiperidine-1-carboxylate]",5.66 nM,4100 nM,51.6 nM,,,,,,,79.467,−91.709%,29.3 nM,−65.862%,41.7 nM,,
C/C(=C\c1cc(F)c2cnn(CC#N)c2c1)[C@H]1OC(=O)C[C@H](O)CC[C@H](C)[C@@H](OC(=O)N2CCN(C)CC2)/C=C/[C@@H]1C [Compound 131],4.04 nM,357 nM,45.8 nM,−94.995%,,,−65.430%,27.1 nM,19.2 nM,,,,,,,
"C/C(=C\C1=CCCN(C(=O)OC(C)(C)C)C1)[C@H]1OC(=O)C[C@H](O)CC[C@H](C)[C@@H](OC(=O)N2CCN(C)CC2)/C=C/[C@@H]1C [Compound 219, [(2S,3S,4E,6R,7S,10R)-10-hydroxy-3,7-dimethyl-2-[(E)-1-[1-[(2-methylpropan-2-yl)oxycarbonyl]-3,6-dihydro-2H-pyridin-5-yl]prop-1-en-2-yl]-12-oxo-1-oxacyclododec-4-en-6-yl] 4-methylpiperazine-1-carboxylate]",7.96 nM,,,,,,,,,,−91.460%,,−42.617%,,24.6 nM,42.4 nM
C/C(=C\c1cc(F)cc(Cl)c1)[C@H]1OC(=O)C[C@H](O)CC[C@H](C)[C@@H](OC(=O)N2CCN(C)CC2)/C=C/[C@@H]1C [Compound 167],3.19 nM,,,−85.316%,,,−70.414%,34.1 nM,52.4 nM,,,,,,,
C/C(=C\c1cc(F)cc(N2CCN(S(=O)(=O)c3cccnc3)CC2)c1)[C@H]1OC(=O)C[C@H](O)CC[C@H](C)[C@@H](OC(=O)N2CCN(C)CC2)/C=C/[C@@H]1C [Compound 112],12.8 nM,,,−80.066%,,,−86.973%,8.29 nM,6.23 nM,,,,,,,
"C/C(=C\c1cccc(S(=O)(=O)N2CCC(F)(F)C2)c1)[C@H]1OC(=O)C[C@H](O)CC[C@H](C)[C@@H](OC(=O)N2CCN(C)CC2)/C=C/[C@@H]1C [Compound 204, [(2S,3S,4E,6R,7S,10R)-2-[(E)-1-[3-(3,3-difluoropyrrolidin-1-yl)sulfonylphenyl]prop-1-en-2-yl]-10-hydroxy-3,7-dimethyl-12-oxo-1-oxacyclododec-4-en-6-yl] 4-methylpiperazine-1-carboxylate]",23.5 nM,,,,,,,,,,−94.081%,,−24.924%,,82 nM,81.9 nM
